From patent US10494384B2, “Urea peptoid boric acid compound, pharmaceutical composition thereof, preparation method therefor, and uses thereof” (Peking University, priority 2015, dated 2019)
Read-outs that look alike come from different tables or passages of the source.

Columns and labels:
[1] = tested on: MGC803 stomach cancer cells; assay: anti-tumor activity in vitro (IC50), MTT; assay type: cell-based; conditions: Homo sapiens, MGC-803, 72 h
Method: (§1) Cancer cells were cultured in vitro. When cell growth reached logarithmic phase, the cells were collected and centrifuged at 1000 rpm for 5 min, before the supernate was removed and the cells were suspended in a moderate amount of medium, and then the concentration of cell was adjusted to 3.5×10^4/mL. The cell suspension was added into a 96-well plate with 100 μL per well and cultured in a cell incubator (37° C., 5% CO2) for 24 h. Then test drugs of different end concentrations were added, and the negative control group was added DMSO (end concentration was 0.5%), while each group afforded three repetitive holes. After cultivation for another 72 h in the cell incubator, a solution containing 5 mg/ml MTT (20 μL) was added into each well and the 96-well plate was placed at 37° C. for 3 h. To each well was added 150 μL DMSO, after oscillation in a shaking table for 5 min, the optical density (OD) values at 492 nm/620 nm were measured. IC50 values were calculated by Prism Graphpad statistical software.

[2] = target: T1, 20S proteasome extracted from rat liver (T-L) (Rattus norvegicus, UniProt P40112+Q9JHW0); assay: inhibition of 20S proteasome, T-L activity (fluorescent peptide); assay type: biochemical; conditions: rat liver 20S proteasome; for IC50: read-out: IC50 (μM) T-L
T1 construct: 20S proteasome extracted from rat liver; from tissue; host or cells: rat liver
Method: (§2) 1 μg of 20S proteasome extracted from rat liver was incubated with a 100 μL solution containing various concentrations of the present compounds, 50 μM fluorescent peptides and 20 mM Tris-HCl at 37° C. for 1 h, respectively. […] 0.1% DMSO was used as a solvent control. Compared with the fluorescence of solvent control, an inhibition rate or IC50 value was calculated.

HepG2 liver cancer cells = assay: anti-tumor activity in vitro (IC50), MTT; assay type: cell-based; conditions: Homo sapiens, liver cancer cells, 72 h, read-out: IC50 (μM) HepG2
Method: as §1

[3] = target: T2, 20S proteasome extracted from rat liver (PGPH) (Rattus norvegicus, UniProt P28073+Q9JHW0); assay: inhibition of 20S proteasome, PGPH activity (fluorescent peptide); assay type: biochemical; conditions: rat liver 20S proteasome; for IC50: read-out: IC50 (μM) PGPH
T2 construct: 20S proteasome extracted from rat liver; from tissue; host or cells: rat liver
Method: as §2

[4] = target: T3, 20S proteasome extracted from rat liver (CT-L) (Rattus norvegicus, UniProt P18421+P28075); assay: inhibition of 20S proteasome, CT-L activity (fluorescent peptide); assay type: biochemical; conditions: rat liver 20S proteasome; for IC50: read-out: IC50 (μM) CT-L
T3 construct: 20S proteasome extracted from rat liver; from tissue; host or cells: rat liver
Method: as §2

[5] = tested on: Hela, human cervical carcinoma; assay: preliminary anti-tumor screening in vitro, MTT method; assay type: cell-based; conditions: read-out: inhibition rates (%) Hela
Method: (§3) The test methods used in this test example are routine methods for anti-tumor activities test in pharmaceutical area, for example, referring to the following reference: (J. Immunol Method, 1983, 65, 55).
(§4) Test models: A: MTT method (Hela, human cervical carcinoma); B: SRB method (BGC-823, […]); C: SRB method (MCF-7, breast cancer); D: SRB method (A549, human lung cancer); E: SRB method (PC3M1E8, prostate cancer).
(§5) Inhibition rates of the compounds were measured under concentrations of 0.1 μM, 1 μM or 10 μM.

MCF-7, breast cancer = assay: preliminary anti-tumor screening in vitro, SRB method; assay type: cell-based; conditions: Homo sapiens, read-out: inhibition rates (%) MCF-7
Method: as §3, §4, §5

BGC-823, liver cancer = assay: as above; assay type: cell-based; conditions: Homo sapiens, read-out: inhibition rates (%) BGC-823
Method: as §3, §4, §5

A549, human lung cancer = assay: as above; assay type: cell-based; conditions: read-out: inhibition rates (%) A549
Method: as §3, §4, §5

[6] = MGC80-3, MTT, value ± spread, read-out: IC50 (μM), growth of stomach cancer cells (MGC80-3)
[7] = stomach cancer cells, MTT, read-out: IC50 (μM) MGC803

COc1cc2c(cc1OC)CN(C(=O)N[C@@H](Cc1ccccc1)C(=O)N[C@@H](CC(C)C)B(O)O)CC2 [Example 50, N-L-phenylalanyl-L-leucine borate-N′-6,7-dimethoxy-1,2,3,4-tetrahydroisoquinoline-urea]
IC50 [1, 6]: 0.0172 ± 0.002 µM

CC[C@H](C)[C@H](NC(=O)N1CCc2ccccc2C1)C(=O)N[C@@H](CC(C)C)B(O)O [Example 44, N-L-isoleucyl-L-leucine borate-N′-1,2,3,4-tetrahydroisoquinoline-urea]
IC50 [1, 6]: 0.139 ± 0.004 µM

CC(C)C[C@H](NC(=O)[C@H](Cc1ccc([N+](=O)[O-])cc1)NC(=O)N1CCc2ccccc2C1)B(O)O [Example 48, N-L-4-nitro-phenylalanyl-L-leucine borate-N′-1,2,3,4-tetrahydroisoquinoline-urea]
IC50 [1, 6]: 0.111 ± 0.009 µM

CC(C)C[C@H](NC(=O)[C@@H](NC(=O)N1CCc2ccccc2C1)C(C)C)B(O)O [Example 42, N-L-valyl-L-leucine borate-N′-1,2,3,4-tetrahydroisoquinoline-urea]
IC50 [1, 6]: 0.143 ± 0.004 µM

CC(C)C[C@H](NC(=O)[C@H](Cc1c[nH]c2ccccc12)NC(=O)N1CCc2ccccc2C1)B(O)O [Example 45, N-L-tryptophanyl-L-leucine borate-N′-1,2,3,4-tetrahydroisoquinoline-urea]
IC50 [1, 6]: 0.0092 ± 0.001 µM

CC(C)C[C@H](NC(=O)[C@H](CCc1ccccc1)NC(=O)N1CCc2ccccc2C1)B(O)O [Example 47, N-L-homophenylalanyl-L-leucine borate-N′-1,2,3,4-tetrahydroisoquinoline-urea]
IC50 [1, 6]: 0.0244 ± 0.005 µM

COc1cccc2c1CCN(C(=O)N[C@@H](Cc1ccccc1)C(=O)N[C@@H](CC(C)C)B(O)O)C2 [Example 54, N-L-phenylalanyl-L-leucine borate-N′-5-methoxy-1,2,3,4-tetrahydroisoquinoline-urea]
IC50 [1, 6]: 0.361 ± 0.088 µM

CC(C)C[C@H](NC(=O)[C@H](Cc1ccc2ccccc2c1)NC(=O)N1CCc2ccccc2C1)B(O)O [Example 43, N-L-naphthylalanyl-L-leucine borate-N′-1,2,3,4-tetrahydroisoquinoline-urea]
IC50 [1, 6]: 0.0173 ± 0.003 µM

COc1cccc2c1CN(C(=O)N[C@@H](Cc1ccccc1)C(=O)N[C@@H](CC(C)C)B(O)O)CC2 [Example 53, N-L-phenylalanyl-L-leucine borate-N′-8-methoxy-1,2,3,4-tetrahydroisoquinoline-urea]
IC50 [1, 6]: 2.24 ± 0.503 µM

CC(C)C[C@H](NC(=O)[C@H](CC(C)C)NC(=O)N1CCc2ccccc2C1)B(O)O [Example 40, N-L-leucyl-L-leucine borate-N′-1,2,3,4-tetrahydroisoquinoline-urea]
IC50 [1, 6]: 0.163 ± 0.008 µM

CC(C)C[C@H](NC(=O)[C@H](Cc1ccccc1)NC(=O)NCc1cccc2ccccc12)B(O)O [Example 34, N-L-phenylalanyl-L-leucine borate-N′-naphth-1-ylmethylamine-urea]
IC50 [2]: 0.15 µM | IC50 [1, 7]: 0.00706 µM | IC50 (HepG2 liver cancer cells): 0.0531 µM | IC50 [3]: 0.12 µM | IC50 [4]: 0.012 µM

CC(C)C[C@H](NC(=O)[C@H](Cc1ccccc1)NC(=O)N1CCc2ccsc2C1)B(O)O [Example 55, N-L-phenylalanyl-L-leucine borate-N′-4,5,6,7-tetrahydrothieno[2,3-c]pyridine-urea]
IC50 [1, 6]: 0.006 µM

CC(C)C[C@H](NC(=O)[C@H](CCC(N)=O)NC(=O)N1CCc2ccccc2C1)B(O)O [Example 49]
IC50 [1, 6]: 0.0401 ± 0.005 µM

COc1ccc(CNC(=O)N[C@@H](Cc2ccccc2)C(=O)N[C@@H](CC(C)C)B(O)O)cc1 [Example 15, N-L-phenylalanyl-L-leucine borate-N′-(p-methoxy-benzylamine)-urea]
inhibition at 0.2 µM ([2]; 0.2 μM, 37° C., 1 h, read-out: inhibition rates (%) T-L): 5.72% | inhibition at 2 µM ([2]; 2 μM, 37° C., 1 h, read-out: inhibition rates (%) T-L): 53.5% | inhibition at 20 µM ([2]; 20 μM, 37° C., 1 h, read-out: inhibition rates (%) T-L): 90.4% | inhibition at 0.1 µM ([5]; 0.1 μM): 39.3% | inhibition at 1 µM ([5]; 1 μM): 44.5% | inhibition at 10 µM ([5]; 10 μM): 51.8% | IC50 [1, 7]: 0.036 µM | IC50 (HepG2 liver cancer cells): 0.25 µM | inhibition at 0.2 µM ([3]; 0.2 μM, 37° C., 1 h, read-out: inhibition rates (%) PGPH): 8.45% | inhibition at 2 µM ([3]; 2 μM, 37° C., 1 h, read-out: inhibition rates (%) PGPH): 89.4% | inhibition at 20 µM ([3]; 20 μM, 37° C., 1 h, read-out: inhibition rates (%) PGPH): 96.8% | inhibition at 0.1 µM (MCF-7, breast cancer; MCF7, 0.1 μM): 47.7% | inhibition at 1 µM (MCF-7, breast cancer; MCF7, 1 μM): 65% | inhibition at 10 µM (MCF-7, breast cancer; MCF7, 10 μM): 73.8% | inhibition at 0.1 µM (BGC-823, liver cancer; 0.1 μM): 7.38% | inhibition at 1 µM (BGC-823, liver cancer; 1 μM): 32.6% | inhibition at 10 µM (BGC-823, liver cancer; 10 μM): 38.4% | inhibition at 0.1 µM (A549, human lung cancer; 0.1 μM): 2.63% | inhibition at 1 µM (A549, human lung cancer; 1 μM): 11% | inhibition at 10 µM (A549, human lung cancer; 10 μM): 31.1% | inhibition at 0.2 µM ([4]; 0.2 μM, 37° C., 1 h, read-out: inhibition rates (%) CT-L): 86.3% | inhibition at 2 µM ([4]; 2 μM, 37° C., 1 h, read-out: inhibition rates (%) CT-L): 95.9% | inhibition at 20 µM ([4]; 20 μM, 37° C., 1 h, read-out: inhibition rates (%) CT-L): 98.3%

CC(C)C[C@H](NC(=O)[C@H](C)NC(=O)N1CCc2ccccc2C1)B(O)O [Example 41, N-L-alanyl-L-leucine borate-N′-1,2,3,4-tetrahydroisoquinoline-urea]
IC50 [1, 6]: 0.134 ± 0.003 µM

CC(C)C[C@H](NC(=O)[C@H](Cc1ccccc1)NC(=O)N1CCc2ccc([N+](=O)[O-])cc2C1)B(O)O [Example 46, N-L-phenylalanyl-L-leucine borate-N′-7-nitro-1,2,3,4-tetrahydroisoquinoline-urea]
IC50 [1, 6]: 0.0046 µM

COc1ccc2c(c1)CN(C(=O)N[C@@H](Cc1ccccc1)C(=O)N[C@@H](CC(C)C)B(O)O)CC2 [Example 51, N-L-phenylalanyl-L-leucine borate-N′-7-methoxy-1,2,3,4-tetrahydroisoquinoline-urea]
IC50 [1, 6]: > 100 µM

CC(C)C[C@H](NC(=O)[C@H](Cc1ccccc1)NC(=O)N1CCCc2ccccc21)B(O)O [Example 38, N-L-phenylalanyl-L-leucine borate-N′-1,2,3,4-tetrahydroquinoline-urea]
IC50 [1, 6]: 0.137 ± 0.011 µM

CC(C)C[C@H](NC(=O)[C@H](Cc1ccccc1)NC(=O)NCc1ccc(-c2ccccc2)cc1)B(O)O [Example 32, N-L-phenylalanyl-L-leucine borate-N′-p-phenyl-benzylamine-urea]
IC50 [2]: 1.15 µM | IC50 [1, 7]: 0.00587 µM | IC50 (HepG2 liver cancer cells): 0.0372 µM | IC50 [3]: 0.24 µM | IC50 [4]: 0.0003 µM

CC(C)C[C@H](NC(=O)[C@H](Cc1ccccc1)NC(=O)N1CCc2ccccc2C1C)B(O)O (stereo partly drawn) [Example 39, N-L-phenylalanyl-L-leucine borate-N′-1-methyl-1,2,3,4-tetrahydroisoquinoline-urea]
IC50 [1, 6]: 0.139 ± 0.004 µM

COc1ccc2c(c1)CCN(C(=O)N[C@@H](Cc1ccccc1)C(=O)N[C@@H](CC(C)C)B(O)O)C2 [Example 52, N-L-phenylalanyl-L-leucine borate-N′-6-methoxy-1,2,3,4-tetrahydroisoquinoline-urea]
IC50 [1, 6]: 0.85 ± 0.106 µM
